How the values were obtained:
[1] = tested on: A. tuberculatus R (PPO inhibitor-resistant) parent; experiment: Herbicide dose-response on whole plants, R parent; type: in vivo, Amaranthus tuberculatus (waterhemp); details: for GR50 (growth reduction by 50%) R: R line
[2] = tested on: A. tuberculatus F2 and backcross lines; experiment: Inheritance of resistance: R or S response of F2 and backcross lines to lactofen; type: in vivo, Amaranthus tuberculatus
[3] = male F1(R) x female F1(R), lactofen 110 g ai ha^−1 plus 1% COC, 15 days after treatment, N 400
[4] = male F1(R) x female R, lactofen 110 g ai ha^−1, 15 days, N 200
[5] = male F1(R) x female S, lactofen 110 g ai ha^−1, 15 days, N 200
[6] = male F1(S) x female F1(S), lactofen 110 g ai ha^−1, 15 days, N 400
[7] = male F1(S) x female R, lactofen 110 g ai ha^−1, 15 days, N 200
[8] = male F1(S) x female S, lactofen 110 g ai ha^−1, 15 days, N 200

SMILES | GR50 (growth reduction by 50%) R ([1]; 10 DAT) [g ai ha^−1] | GR50 (growth reduction by 50%) R ([1]; 15 DAT, dry weight vs control, plus 1% COC) [g ai ha^−1] | fold higher doses survived compared with S plants ([1]; lines homozygous for resistance vs S plants (FIG. 2; Table 2)) [fold] | Observed numbers R [2, 3] | Observed numbers S [2, 3] | Observed numbers R [2, 4] | Observed numbers S [2, 4] | Observed numbers R [2, 5] | Observed numbers S [2, 5] | Observed numbers R [2, 6] | Observed numbers S [2, 6] | Observed numbers R [2, 7] | Observed numbers S [2, 7] | Observed numbers R [2, 8] | Observed numbers S [2, 8]
CCOC(=O)C(C)OC(=O)c1cc(Oc2ccc(C(F)(F)F)cc2Cl)ccc1[N+](=O)[O-] (racemic) [Lactofen, (±)-2-ethoxy-1-methyl-2-oxoethyl 5-{2-chloro-4-(trifluoromethyl)phenoxy}-2-nitrobenzoate] | 2.9 | 21 | 53 | 297 | 103 | 200 | 0 | 98 | 102 | 304 | 96 | 200 | 0 | 109 | 91
O=C(O)c1cc(Oc2ccc(C(F)(F)F)cc2Cl)ccc1[N+](=O)[O-] [Acifluorfen, 5-{2-chloro-4-(trifluoromethyl)phenoxy}-2-nitrobezoic acid] | 5.8 |  |  |  |  |  |  |  |  |  |  |  |  |  | 

Reference: US7842856B2, “Herbicide resistance gene, compositions and methods” (The Board of Trustees of the University of Illinois, priority 2005, dated 2010)
